Measurements published in patent US12421210B2, “Fused bicyclic heterocycles as therapeutic agents” (NEW YORK UNIVERSITY, priority 2018, dated 2025).

Target: human NAMPT enzyme (His-hNAMPT) (Homo sapiens (Human), UniProt P43490)
Experiment: NAMPT enzymatic inhibition assay (fluorescence, NADH product)
Format: biochemical
Conditions: [BPS]; read-out: NAMPT IC50 (μM) [BPS]
Procedure: The compounds were then diluted 20 fold in an intermediate dilution to 5% DMSO and water. Finally 10 μL of each compound was added to the assay plate, in duplicate, with highest concentration at 30 μM and the lowest at 0.001 μM in a final volume of 50 μL and 1% DMSO concentration. Each assay also tested, in parallel, two reference compounds, FK866 and GMX1778, with highest concentration at 10 μM and lowest at 0.0003 μM. 200 ng of human NAMPT enzyme (His-hNAMPT obtained from E. coli expression system) diluted in […] (tris-buffered saline-Polysorbate 20) 1× was added to each well in a volume of 10 μL and the compounds were incubated with the enzyme at room temperature for 20 minutes. After the incubation, 30 μL of master mixture were added to each well. The master mixture contained: 50 mM Tris-HCl, pH 8.0, 12.5 mM MgCl2, 20 μM nicotinamide, 40 μM phosphoribosyl pyrophosphate (PRPP), 20 μM adenosine triphosphate (ATP), 30 μg/mL of alcohol dehydrogenase, 10 μg/mL of NMNAT, 1.5% alcohol, 1 mM dithiothreitol (DTT), 0.02% bovine serum albumin (BSA), 0.01% Tween 20. The reaction was performed at 30° C. for 60 minutes. Fluorescence intensity was measured at an excitation of 340 nm and an emission of 460 nm using a Tecan Infinite M1000 microplate reader. The fluorescence values indicated increase of NADH product.
Enzyme activity assay was performed in duplicate at each concentration. The fluorescence data was analyzed and compared. In the absence of the compound, the intensity (Ce) in each data set was defined as 100% activity. In the absence of enzyme, the intensity (C0) in each data set was defined as 0% activity. The percent activity in the presence of each compound was calculated according to the following equation: % activity=(C−C0)/(Ce−C0), where C is the fluorescence in the presence of the compound.
The % activity vs. compound concentrations were then plotted using non-linear regression analysis of Sigmoidal dose-response curve generated with the equation Y=B+(T−B)/1+10^((Log EC50-X)×Hill Slope), where Y is percent activity, B is minimum percent activity, T is maximum percent activity, X is logarithm of compound and Hill Slope=slope factor or Hill coefficient.

human NAMPT enzyme (His-hNAMPT), sequence (P43490 whole entry): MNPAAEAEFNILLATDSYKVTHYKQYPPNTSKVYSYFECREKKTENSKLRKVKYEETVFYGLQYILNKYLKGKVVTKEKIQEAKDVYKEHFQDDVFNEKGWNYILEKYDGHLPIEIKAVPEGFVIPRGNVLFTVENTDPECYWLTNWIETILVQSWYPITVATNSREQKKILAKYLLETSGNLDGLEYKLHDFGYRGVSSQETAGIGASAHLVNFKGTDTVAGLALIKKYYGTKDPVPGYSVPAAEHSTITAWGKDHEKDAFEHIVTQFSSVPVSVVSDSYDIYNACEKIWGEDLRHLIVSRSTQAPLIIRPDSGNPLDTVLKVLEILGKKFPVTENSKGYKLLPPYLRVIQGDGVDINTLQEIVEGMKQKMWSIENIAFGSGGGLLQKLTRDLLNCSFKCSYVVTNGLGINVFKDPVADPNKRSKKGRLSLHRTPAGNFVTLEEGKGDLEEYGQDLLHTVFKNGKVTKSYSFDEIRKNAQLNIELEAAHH

Row | Compound | IC50 [µM]
1 | Nc1ccc(/C=C/C(=O)NCC[C@@H]2[C@H]3CN(C(=O)N4CCCC4)C[C@@H]23)cn1 [Example 39, (E)-3-(6-aminopyridin-3-yl)-N-(2-((1R,5S,6s)-3-(pyrrolidine-1-carbonyl)-3-azabicyclo[3.1.0]hexan-6-yl)ethyl)acrylamide] | 0.01 to 0.49
2 | O=C(NCC[C@@H]1[C@H]2CN(C(=O)OC3CCOCC3)C[C@@H]12)c1cc2cnccc2[nH]1 [Example 83, (1R,5S,6s)-tetrahydro-2H-pyran-4-yl 6-(2-(1H-pyrrolo[3,2-c]pyridine-2-carboxamido)ethyl)-3-azabicyclo[3.1.0]hexane-3-carboxylate] | 0.01 to 0.49
3 | O=C(NCC[C@@H]1[C@H]2CN(C(=O)N3CCCC3)C[C@@H]12)c1cc2ccncc2o1 [Example 70, N-(2-((1R,5S,6s)-3-(pyrrolidine-1-carbonyl)-3-azabicyclo[3.1.0]hexan-6-yl)ethyl)furo[2,3-c]pyridine-2-carboxamide] | 0.01 to 0.49
4 | CC(C)(C)OC(=O)N1C[C@H]2CCC(CNC(=O)NCc3cccnc3)C[C@H]2C1 (stereo in doubt) [Example 269, tert-butyl 5-((3-(pyridin-3-ylmethyl)ureido)methyl)hexahydro-1H-isoindole-2(3H)-carboxylate] | 1 to 29
5 | CC(C)(C)NC(=O)N1C[C@@H]2[C@@H](CCNC(=O)c3cc(-c4cccnc4)on3)[C@@H]2C1 [Example 81, N-(2-((1R,5S,6s)-3-(tert-butylcarbamoyl)-3-azabicyclo[3.1.0]hexan-6-yl)ethyl)-5-(pyridin-3-yl)isoxazole-3-carboxamide] | < 0.01
6 | CC(C)(C)OC(=O)N1C[C@@H]2[C@@H](CCNC(=O)NCc3cccnc3)[C@@H]2C1 [Example 19, (1R,5S,6s)-tert-butyl 6-(2-(3-((pyridin-3-yl)methyl)ureido)ethyl)-3-azabicyclo[3.1.0]hexane-3-carboxylate] | 0.01 to 0.49
7 | O=C(/C=C/c1cccnc1)NCC[C@@H]1[C@H]2CN(S(=O)(=O)c3ccccc3)C[C@@H]12 [Example 23, (E)-N-(2-((1R,5S,6s)-3-(phenylsulfonyl)-3-azabicyclo[3.1.0]hexan-6-yl)ethyl)-3-(pyridin-3-yl)acrylamide] | 0.01 to 0.49
8 | CC(C)(C)OC(=O)N1C[C@@H]2[C@@H](CCNC(=O)[C@H]3C[C@@H]3c3cccnc3)[C@@H]2C1 [Example 10, (1R,5S,6s)-tert-butyl 6-(2-((1R,2R)-2-(pyridin-3-yl)cyclopropanecarbox-amido)ethyl)-3-azabicyclo[3.1.0]hexane-3-carboxylate] | 0.01 to 0.49
9 | CC(C)(C)OC(=O)N1C[C@@H]2[C@@H](CCNC(=O)C(C)(C)C)[C@@H]2C1 [Example 8, (1R,5S,6s)-tert-butyl 6-(2-pivalamidoethyl)-3-azabicyclo[3.1.0]hexane-3-carboxylate] | > 30
10 | O=C(NCC[C@@H]1[C@H]2CN(C(=O)CC3CCOCC3)C[C@@H]12)c1ccc2nccn2c1 [Example 101, N-(2-((1R,5S,6s)-3-(2-(tetrahydro-2H-pyran-4-yl)acetyl)-3-azabicyclo[3.1.0]hexan-6-yl)ethyl)imidazo[1,2-a]pyridine-6-carboxamide] | 0.01 to 0.49
11 | O=C(NCC[C@@H]1[C@H]2CN(C(=O)c3ccc(F)cc3)C[C@@H]12)c1cnc2nccn2c1 [Example 107, N-(2-((1R,5S,6s)-3-(4-fluorobenzoyl)-3-azabicyclo[3.1.0]hexan-6-yl)ethyl)imidazo[1,2-a]pyrimidine-6-carboxamide] | 0.01 to 0.49
12 | Nc1ccc(/C=C/C(=O)NCC[C@@H]2[C@H]3CN(C(=O)c4ccc(OC(F)F)cc4)C[C@@H]23)cn1 [Example 90, (E)-3-(6-aminopyridin-3-yl)-N-(2-((1R,5S,6s)-3-(4-(difluoromethoxy)benzoyl)-3-azabicyclo[3.1.0]hexan-6-yl)ethyl)acrylamide] | 0.01 to 0.49

Same assay, conditions: [HDB]; read-out: NAMPT IC50 (μM) [HDB]

Row | Compound | IC50 [µM]
13 | O=C(/C=C/c1cccnc1)NCC[C@@H]1[C@H]2CN(c3nc(OCCO)ncc3F)C[C@@H]12 [Example 314, (E)-N-(2-((1R,5S,6s)-3-(5-fluoro-2-(2-hydroxyethoxy)pyrimidin-4-yl)-3-azabicyclo[3.1.0]hexan-6-yl)ethyl)-3-(pyridin-3-yl)acrylamide] | 0.01 to 0.49
14 | O=C(/C=C/c1cccnc1)NCC[C@@H]1[C@H]2CN(c3ccncc3)C[C@@H]12 [Example 154, (E)-3-(pyridin-3-yl)-N-(2-((1R,5S,6s)-3-(pyridin-4-yl)-3-azabicyclo[3.1.0]hexan-6-yl)ethyl)acrylamide] | 0.01 to 0.49
15 | CS(=O)(=O)Nc1cccc(N2C[C@@H]3[C@@H](CCNC(=O)/C=C/c4cccnc4)[C@@H]3C2)c1 [Example 185, (E)-N-(2-((1R,5S,6s)-3-(3-(methylsulfonamido)phenyl)-3-azabicyclo[3.1.0]hexan-6-yl)ethyl)-3-(pyridin-3-yl)acrylamide] | 0.01 to 0.49
16 | CN(C)c1ncc(F)c(N2C[C@@H]3[C@@H](CCNC(=O)/C=C/c4cccnc4)[C@@H]3C2)n1 [Example 304, (E)-N-(2-((1R,5S,6s)-3-(2-(dimethylamino)-5-fluoropyrimidin-4-yl)-3-azabicyclo[3.1.0]hexan-6-yl)ethyl)-3-(pyridin-3-yl)acrylamide] | < 0.01
17 | CCN(CC)C(=O)COc1ncc(F)c(N2C[C@@H]3[C@@H](CCNC(=O)/C=C/c4cccnc4)[C@@H]3C2)n1 [Example 329, (E)-N-(2-((1R,5S,6s)-3-(2-(2-(diethylamino)-2-oxoethoxy)-5-fluoropyrimidin-4-yl)-3-azabicyclo[3.1.0]hexan-6-yl)ethyl)-3-(pyridin-3-yl)acrylamide] | 0.01 to 0.49
18 | N#Cc1ccc(N2C[C@@H]3[C@@H](CCNC(=O)/C=C/c4cccnc4)[C@@H]3C2)cc1 [Example 137, (E)-N-(2-((1R,5S,6s)-3-(4-cyanophenyl)-3-azabicyclo[3.1.0]hexan-6-yl)ethyl)-3-(pyridin-3-yl)acrylamide] | 0.01 to 0.49
19 | O=C(/C=C/c1cccnc1)NCC[C@@H]1[C@H]2CN(CC3CCOCC3)C[C@@H]12 [Example 246, (E)-3-(pyridin-3-yl)-N-(2-((1R,5S,6s)-3-((tetrahydro-2H-pyran-4-yl)methyl)-3-azabicyclo[3.1.0]hexan-6-yl)ethyl)acrylamide] | 0.5 to 0.99
20 | O=C(COc1cccnc1)NCC[C@@H]1[C@H]2CN(c3nc(Cl)ncc3F)C[C@@H]12 [Example 219, N-(2-((1R,5S,6s)-3-(2-chloro-5-fluoropyrimidin-4-yl)-3-azabicyclo[3.1.0]hexan-6-yl)ethyl)-2-(pyridin-3-yloxy)acetamide] | 0.01 to 0.49
21 | O=C(/C=C/c1cccnc1)NCC[C@@H]1[C@H]2CN(S(=O)(=O)c3ccccc3)C[C@@H]12 [Example 23, (E)-N-(2-((1R,5S,6s)-3-(phenylsulfonyl)-3-azabicyclo[3.1.0]hexan-6-yl)ethyl)-3-(pyridin-3-yl)acrylamide] | 0.01 to 0.49
22 | O=C(/C=C/c1cccnc1)NCC[C@@H]1[C@H]2CN(c3nc(Oc4ccccc4)ncc3F)C[C@@H]12 [Example 306, (E)-N-(2-((1R,5S,6s)-3-(5-fluoro-2-phenoxypyrimidin-4-yl)-3-azabicyclo[3.1.0]hexan-6-yl)ethyl)-3-(pyridin-3-yl)acrylamide] | 0.01 to 0.49
23 | O=C(NCC[C@@H]1[C@H]2CN(c3nc(Cl)ncc3F)C[C@@H]12)c1cc2ccncc2s1 [Example 223, N-(2-((1R,5S,6s)-3-(2-chloro-5-fluoropyrimidin-4-yl)-3-azabicyclo[3.1.0]hexan-6-yl)ethyl)thieno[2,3-c]pyridine-2-carboxamide] | 0.01 to 0.49
24 | O=C(/C=C/c1cccnc1)NCC[C@@H]1[C@H]2CN(c3nc(N4CCNCC4)ncc3F)C[C@@H]12 [Example 324, (E)-N-(2-((1R,5S,6s)-3-(5-fluoro-2-(piperazin-1-yl)pyrimidin-4-yl)-3-azabicyclo[3.1.0]hexan-6-yl)ethyl)-3-(pyridin-3-yl)acrylamide] | 0.01 to 0.49
25 | Cc1noc2ncc(/C=C/C(=O)NCC[C@@H]3[C@H]4CN(C(=O)OC(C)(C)C)C[C@@H]34)cc12 [Example 9, tert-butyl (1R,5S,6s)-6-(2-((E)-3-(3-methylisoxazolo[5,4-b]pyridin-5-yl)acrylamido)ethyl)-3-azabicyclo[3.1.0]hexane-3-carboxylate] | 0.01 to 0.49
26 | O=C(/C=C/c1cccnc1)NCC[C@@H]1[C@H]2CN(c3cccc(C(F)(F)F)c3)C[C@@H]12 [Example 138, (E)-3-(pyridin-3-yl)-N-(2-((1R,5S,6s)-3-(3-(trifluoromethyl)phenyl)-3-azabicyclo[3.1.0]hexan-6-yl)ethyl)acrylamide] | 0.01 to 0.49
27 | CC(C)N1C[C@@H]2[C@@H](CCNC(=O)/C=C/c3cccnc3)[C@@H]2C1 [Example 245, (E)-N-(2-((1R,5S,6s)-3-isopropyl-3-azabicyclo[3.1.0]hexan-6-yl)ethyl)-3-(pyridin-3-yl)acrylamide] | 1 to 29
28 | O=C(NCC[C@@H]1[C@H]2CN(C(=O)OC3CCOCC3)C[C@@H]12)c1cc2ccncc2s1 [Example 85, (1R,5S,6s)-tetrahydro-2H-pyran-4-yl 6-(2-(thieno[2,3-c]pyridine-2-carboxamido)ethyl)-3-azabicyclo[3.1.0]hexane-3-carboxylate] | 0.01 to 0.49
